This passage reports GI50 results from patent publication EP4563571A1, “PRMT5 INHIBITORS” (Beijing Earthwise Technology Co., Ltd., priority 2022, dated 2024).

Bounds are passed on as bounds.

In one test the test system is HCT116^MTAP Deletion cells. As to the kind of experiment: Anti-proliferation assay on cells (Cell-Titer Glo, 10 days). Format: cell-based. The note with it: 240 h, HCT116^MTAP Deletion cells, 10 days incubation, CTG readout; read-out: HCT116^MTAP Deletion GI50. The method, then:
HCT116^MTAP Deletion cells were from Pharmaron (China); HCT116 cells were from ATCC; McCoy's 5A medium was purchased from Invitrogen (USA); penicillin-streptomycin and fetal bovine serum were purchased from Gibco (USA); a 384-well plate was purchased from PerkinElmer (USA); and Cell-Titer Glo reagent was purchased from Promega (USA).
Compound dissolution: All the compounds were dissolved in dimethyl sulfoxide (DMSO) and then stored. The compounds were stored at room temperature in a dry condition for 3 months for short term storage or at -20 °C for long term storage.
Cell culture and passaging
The cells were cultured strictly in accordance with ATCC requirements. The cell culture medium (McCoy's 5A medium + 10% fetal bovine serum + 1% penicillin + streptomycin) was transferred to a 15 mL centrifuge tube and centrifuged at 1000 rpm for 5 min. The supernatant was removed. The cells were resuspended with complete culture medium, inoculated into a culture dish at the required density, and cultured in an incubator at 37 °C, 95% humid air, and 5% carbon dioxide. The culture medium was replenished or the cells were passaged every 2-3 days depending on the cell growth condition.
Cell proliferation activity assay
When the confluency of cells in the culture dish reached about 90%, the cells were washed twice with PBS, and then treated with trypsin to become single cells. The cells were counted, and 40µl of the cells was inoculated into each well of a 384-well plate (50 cells/well). The plate was equilibrated at 37 °C and 5% carbon dioxide for 10 to 15 minutes. The compounds were injected into the 384-well plate using Echo550, and positive control and negative control (0.1% DMSO) were set up. Each compound was subjected to a 3-fold dilution, resulting in 10 concentration gradients, in duplicate, and the content of DMSO was 0.1%. The 384-well plate was incubated in a cell culture incubator for 10 days.
Then, 40 µl of cell proliferation assay reagent (CTG) was added to the 384-well plate, and the plate was shaken to mix well. Then, the 384-well plate was incubated at 37 °C and 5% carbon dioxide in the dark for 30 minutes. The data were read using the Envision multifunctional microplate reader. […] According to the different drug concentrations and their corresponding inhibition rates, the GI50 curve was drawn using GraphPad 8.0 software. The data were analyzed, and the final IC50 value was obtained.
With `Cn1ncc2c(NC(=O)C(=O)N(C3CC3)C3COc4cc(C(F)(F)F)ccc43)cnc(N)c21` (stereo not drawn) [Example 118], the GI50 is less than 10 nM. Regarding `Cn1ncc2c(NC(=O)C(=O)NC3COCc4cc(C(F)(F)F)ccc43)cnc(N)c21` (stereo not drawn) [Example 119], the GI50 is 1000 to 10000 nM. Regarding `CN(C(=O)C(=O)Nc1cnc(N)c2c1cnn2C)C1CCOCC1` [Example 120], the GI50 lay within 1000 to 10000 nM. For `CCN(C(=O)C(=O)Nc1cnc(N)c2c1cnn2C)C1COc2cc(C(F)(F)F)ccc21` (stereo not drawn) [Example 121], the GI50 is less than 10 nM. `CC(C)CN(C(=O)C(=O)Nc1cnc(N)c2c1cnn2C)C1COc2cc(C(F)(F)F)ccc21` (stereo not drawn) [Example 122]: the GI50 fell in the range of 10 to 100 nM.

In the case of `Cn1ncc2c(NC(=O)C(=O)N(CC3CC3)C3COc4cc(C(F)(F)F)ccc43)cnc(N)c21` (stereo not drawn) [Example 123], the GI50 was less than 10 nM. Take `CCC(C)N(Cc1ccc(C2=CCN(C(=O)OC)CC2)cn1)C(=O)C(=O)Nc1cnc(N)c(C)c1` (stereo not drawn) [Example 125-P1]: the GI50 is less than 10 nM.

In the case of `CN(C(=O)C(=O)Nc1cnc(N)c2c1cnn2C)C1CCOC1` (stereo not drawn) [Example 126], the GI50 lay within 1000 to 10000 nM. The same measure, in the same setting: to `CN(C(=O)C(=O)Nc1cnc(N)c2c1cnn2C)C1CCOc2cc(C(F)(F)F)ccc21` (stereo not drawn) [Example 127] belongs 10 to 100 nM; to `CC(C)Oc1ccc2c(c1)COCC2N(C)C(=O)C(=O)Nc1cnc(N)c2c1cnn2C` (stereo not drawn) [Example 128], 10 to 100 nM; to `CN(C(=O)C(=O)Nc1cnc(N)c2c1cnn2C)C1CCCOC1` (stereo not drawn) [Example 129], 1000 to 10000 nM. For the molecule `CN(C(=O)C(=O)Nc1cnc(N)c2c1cnn2C)C1CCN(c2ccccc2)C1` (stereo not drawn) [Example 130], the GI50 is 100 to 1000 nM. `CCC(C)N(C(=O)C(=O)Nc1cnc(N)c2c1cnn2C)C1COCc2cc(C(F)(F)F)ccc21` (stereo not drawn) [Example 131]: the GI50 lay in the range of 10 to 100 nM. `CN(C(=O)C(=O)Nc1cnc(N)c2c1cnn2C)C1CCCN(c2ccccc2)C1` (stereo not drawn) [Example 133]: the GI50 is 1000 to 10000 nM. Take `CN(C(=O)C(=O)Nc1cnc(N)c2c1cnn2C)C1COCc2ccc(C(F)(F)F)cc21` (stereo not drawn) [Example 134]: the GI50 lay in the range of 10 to 100 nM.

As for `CN(C(=O)C(=O)Nc1cnc(N)c2c1cnn2C)C1CCc2cc(C(F)(F)F)ccc21` (stereo not drawn) [Example 136], the GI50 was in the range of 10 to 100 nM.

For `CN1CCC(c2ccc3c(c2)COCC3N(C)C(=O)C(=O)Nc2cnc(N)c3c2cnn3C)CC1` (stereo not drawn) [Example 139], the GI50 was 10 to 100 nM.

As to `CN(C(=O)C(=O)Nc1cnc(N)c2c1cnn2C)C1COc2cc(-c3cnn(C)c3)ccc21` (stereo not drawn) [Example 140-P1], the GI50 was less than 10 nM.

As to `COc1ncc(NC(=O)C(=O)N(C)C2COc3cc(C(F)(F)F)ccc32)cc1C(N)=O` (stereo not drawn) [Example 142], the GI50 was in the range of 1000 to 10000 nM.

Take `COc1ncc(NC(=O)C(=O)N(C)C2COCc3cc(C(F)(F)F)ccc32)cc1C(N)=O` (stereo not drawn) [Example 143]: the GI50 lay within 100 to 1000 nM. As to `CN(C(=O)C(=O)Nc1cnc(N)c2c1cnn2C)C1COCc2cc(C3CCOCC3)ccc21` (stereo not drawn) [Example 144], the GI50 was in the range of 10 to 100 nM. On the same count and under the same terms, to `Cc1cn(-c2ccc3c(c2)COCC3N(C)C(=O)C(=O)Nc2cnc(N)c3c2cnn3C)cn1` (stereo not drawn) [Example 145] belongs 10 to 100 nM; to `CN(C(=O)C(=O)Nc1cnc(N)c2c1cnn2C)C1COC(C)(C)c2cc(C(F)(F)F)ccc21` (stereo not drawn) [Example 147], 10 to 100 nM; to `CN(C(=O)C(=O)Nc1cnc(N)c2c1cnn2C)C1COCc2c1cccc2C(F)(F)F` (stereo not drawn) [Example 148], 10 to 100 nM. Take `CN1CCN(c2ccc3c(c2)COCC3N(C)C(=O)C(=O)Nc2cnc(N)c3c2cnn3C)CC1` (stereo not drawn) [Example 149]: the GI50 is 10 to 100 nM. Turning to `Cc1c(-c2ccc3c(c2)COCC3N(C)C(=O)C(=O)Nc2cnc(N)c3c2cnn3C)cnn1C` (stereo not drawn) [Example 150], the GI50 is less than 10 nM. Same read-out and setting: the same measure for `CN(C(=O)C(=O)Nc1cnc(N)c2c1cnn2C)C1COCc2ncccc21` (stereo not drawn) [Example 151]: 10 to 100 nM. The same measure, in the same setting: the same measure for `CN(C(=O)C(=O)Nc1cnc(N)c2c1cnn2C)C1COCc2cc(-c3cnn4c3CCC4)ccc21` (stereo not drawn) [Example 154]: less than 10 nM; for `CN(C(=O)C(=O)Nc1cnc(N)c2c1cnn2C)C1COCc2cc(Cl)c(Cl)cc21` (stereo not drawn) [Example 158]: less than 10 nM; for `COc1ncc(NC(=O)C(=O)N(C)C2COCc3cc(C4=CCOCC4)ccc32)cc1C(N)=O` (stereo not drawn) [Example 166]: 100 to 1000 nM.

As for `CN(C(=O)C(=O)Nc1cnc(N)c2c1cnn2C)C1COc2cc(C3=CCCOC3)ccc21` (stereo not drawn) [Example 169], the GI50 fell in the range of 10 to 100 nM. On the same count and under the same terms, to `Cc1ncc(-c2ccc3c(c2)OCC3N(C)C(=O)C(=O)Nc2cnc(N)c3c2cnn3C)s1` (stereo not drawn) [Example 170] belongs less than 10 nM; to `CN(C(=O)C(=O)Nc1cnc(N)c2c1cnn2C)C1COCc2cc(OC3CC3)ccc21` (stereo not drawn) [Example 171], 10 to 100 nM; to `CN(C(=O)C(=O)Nc1cnc(N)c2c1cnn2C)C1COCc2cc(N3CCOCC3)ccc21` (stereo not drawn) [Example 175], 10 to 100 nM.

As for `CN(C(=O)C(=O)Nc1cnc(N)c2c1cnn2C)C1COc2cc(C(F)(F)F)cc(F)c21` (stereo not drawn) [Example 176], the GI50 was in the range of 10 to 100 nM. For the molecule `CN(C(=O)C(=O)Nc1cnc(N)c2c1cnn2C)C1COc2cc(-c3ccc(C(F)(F)F)cn3)ccc21` (stereo not drawn) [Example 177], the GI50 lay in the range of 10 to 100 nM. For the molecule `Cc1cc(-c2ccc3c(c2)COCC3N(C)C(=O)C(=O)Nc2cnc(N)c3c2cnn3C)on1` (stereo not drawn) [Example 179], the GI50 was in the range of 10 to 100 nM.

Regarding `CN(C(=O)C(=O)Nc1cnc(N)c2c1cnn2C)C1COc2cc(C(F)(F)F)ncc21` (stereo not drawn) [Example 188], the GI50 is 10 to 100 nM.

As to `CN(C(=O)C(=O)Nc1cnc(N)c2c1cnn2C)C1COc2cc(S(C)(=O)=O)ccc21` (stereo not drawn) [Example 189], the GI50 lay in the range of 10 to 100 nM.

`CN(C(=O)C(=O)Nc1cnc(N)c2c1cnn2C)C1COc2cc(C3CCOCC3)ccc21` (stereo not drawn) [Example 190]: the GI50 is 10 to 100 nM.

In the case of `CN(C(=O)C(=O)Nc1cnc(N)c2c1cnn2C)C1COCc2cc(-c3cnc(C(F)(F)F)s3)ccc21` (stereo not drawn) [Example 191], the GI50 is less than 10 nM. For `CN(C(=O)C(=O)Nc1cnc(N)c2c1cnn2C)C1COc2cc(C3CC3)ccc21` (stereo not drawn) [Example 193], the GI50 is 10 to 100 nM. Regarding `CN(C(=O)C(=O)Nc1cnc(N)c2c1cnn2C)C1COc2cc(OC(F)(F)F)ccc21` (stereo not drawn) [Example 196], the GI50 was 10 to 100 nM. Still for that read-out and setting: to `CN(C(=O)C(=O)Nc1cnc(N)c2c1cnn2C)C1COCc2cc(C34CCOCC3C4)ccc21` (stereo not drawn) [Example 197] belongs less than 10 nM; to `CN(C(=O)C(=O)Nc1cnc(N)c2c1cnn2C)C1COc2cc(C#N)ccc21` (stereo not drawn) [Example 198], 10 to 100 nM. For the molecule `CN(C(=O)C(=O)Nc1cnc(N)c2c1cnn2C)C1COc2cc(C(F)(F)F)c(F)cc21` (stereo not drawn) [Example 199], the GI50 was 10 to 100 nM.

`Cc1nn(C)cc1-c1ccc2c(c1)COCC2N(C)C(=O)C(=O)Nc1cnc(N)c2c1cnn2C` (stereo not drawn) [Example 200]: the GI50 was less than 10 nM. On to `COc1ccc(-c2ccc3c(c2)COCC3N(C)C(=O)C(=O)Nc2cnc(N)c3c2cnn3C)cn1` (stereo not drawn) [Example 202], for which the GI50 was less than 10 nM. On the same count and under the same terms, to `CN(C(=O)C(=O)Nc1cnc(N)c2c1cnn2C)C1COCc2cc(C3(F)CNC3)ccc21` (stereo not drawn) [Example 203] belongs 10 to 100 nM.

For the molecule `CN(C(=O)C(=O)Nc1cnc(N)c2c1cnn2C)C1COc2cc(OC(F)F)ccc21` (stereo not drawn) [Example 204], the GI50 was in the range of 10 to 100 nM.

Still in this test, the particulars now being: HCT116^MTAP Deletion cells, 10 days incubation, CTG readout; read-out: HCT116^MTAP Deletion GI50.
With `CN(C(=O)C(=O)Nc1cnc(N)c2c1cnn2C)C1COCc2cc(-c3cnn(C)c3)ccc21` (stereo not drawn) [Example 124-P2], the GI50 is 10 to 100 nM. Take `CCC(C)N(Cc1ccc(C2=CCN(C(=O)OC)CC2)cn1)C(=O)C(=O)Nc1cnc(N)c(C)c1` (stereo not drawn) [Example 125-P2]: the GI50 was less than 10 nM.

For `CN(C(=O)C(=O)Nc1cnc(N)c2c1cnn2C)C1COCc2cc(C3=CCOCC3)ccc21` (stereo not drawn) [Example 132-P2], the GI50 fell in the range of 10 to 100 nM. Same read-out and setting: to `CN(C(=O)C(=O)Nc1cnc(N)c2c1cnn2C)C1COCc2cc(-c3ccnn3C)ccc21` (stereo not drawn) [Example 137] belongs less than 10 nM; to `CN(C(=O)C(=O)Nc1cnc(N)c2c1cnn2C)C1COCc2c1ccc(F)c2F` (stereo not drawn) [Example 138], 10 to 100 nM. Regarding `CN(C(=O)C(=O)Nc1cnc(N)c2c1cnn2C)C1COc2cc(-c3cnn(C)c3)ccc21` (stereo not drawn) [Example 140-P2], the GI50 was 10 to 100 nM.

As to `CN(C(=O)C(=O)Nc1cnc(N)c2c1cnn2C)C1COCc2c1ccc(F)c2F` (stereo not drawn) [Example 141-P1], the GI50 is 10 to 100 nM. Take `CN(C(=O)C(=O)Nc1cnc(N)c2c1cnn2C)C1COCc2c1ccc(F)c2F` (stereo not drawn) [Example 141-P2]: the GI50 lay in the range of 100 to 1000 nM.

Regarding `CN(C(=O)C(=O)Nc1cnc(N)c2c1cnn2C)C1COc2nc(C(F)(F)F)ccc21` (stereo not drawn) [Example 159], the GI50 lay in the range of 100 to 1000 nM.

Regarding `CN1CC=C(c2ccc3c(c2)COCC3N(C)C(=O)C(=O)Nc2cnc(N)c3c2cnn3C)CC1` (stereo not drawn) [Example 160], the GI50 fell in the range of 10 to 100 nM.

In general, GI50 refers to the concentration at which growth is held to half of that of the control.
